Measurements as given in article PMC4042638 (The Journal of Experimental Medicine, 2014).

Target: Aβ–fibrinogen interaction (Homo sapiens, UniProt P05067)
Test: AlphaLISA
Format: binding

Chain of Aβ–fibrinogen interaction (P05067 672-713): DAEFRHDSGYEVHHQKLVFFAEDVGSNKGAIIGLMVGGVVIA

In the case of `CSc1ccc(/C=C2/C(C)=C(CC(=O)O)c3cc(F)ccc32)cc1` [sulindac sulfide], the “Inhibition of the Aβ–fibrinogen interaction in AlphaLISA (in words)” value is reported as “no effect”.
